Experimental findings from ChEMBL document CHEMBL3621041, “Optimization of a Novel Binding Motif to (E)-3-(3,5-Difluoro-4-((1R,3R)-2-(2-fluoro-2-methylpropyl)-3-methyl-2,3,4,9-tetrahydro-1H-pyrido[3,4-b]indol-1-yl)phenyl)acrylic Acid (AZD9496), a Potent and Orally Bioavailable Selective Estrogen Receptor Downregulator and Antagonist” (J Med Chem, 2015) are described below.

SMILES strings stand for the structures. Converted amounts (≈) assume the structure as drawn. The source made the active and inactive calls. The rule behind the calls is not given here. Bounds are passed on as bounds.

In one data set the test system is MCF7. In words: cells. As to conditions: Homo sapiens, MCF7, read-out: pIC50 (converted).
In the next data set the target is T1, Progesterone receptor (Homo sapiens, UniProt P06401).
T1 sequence (P06401 whole entry): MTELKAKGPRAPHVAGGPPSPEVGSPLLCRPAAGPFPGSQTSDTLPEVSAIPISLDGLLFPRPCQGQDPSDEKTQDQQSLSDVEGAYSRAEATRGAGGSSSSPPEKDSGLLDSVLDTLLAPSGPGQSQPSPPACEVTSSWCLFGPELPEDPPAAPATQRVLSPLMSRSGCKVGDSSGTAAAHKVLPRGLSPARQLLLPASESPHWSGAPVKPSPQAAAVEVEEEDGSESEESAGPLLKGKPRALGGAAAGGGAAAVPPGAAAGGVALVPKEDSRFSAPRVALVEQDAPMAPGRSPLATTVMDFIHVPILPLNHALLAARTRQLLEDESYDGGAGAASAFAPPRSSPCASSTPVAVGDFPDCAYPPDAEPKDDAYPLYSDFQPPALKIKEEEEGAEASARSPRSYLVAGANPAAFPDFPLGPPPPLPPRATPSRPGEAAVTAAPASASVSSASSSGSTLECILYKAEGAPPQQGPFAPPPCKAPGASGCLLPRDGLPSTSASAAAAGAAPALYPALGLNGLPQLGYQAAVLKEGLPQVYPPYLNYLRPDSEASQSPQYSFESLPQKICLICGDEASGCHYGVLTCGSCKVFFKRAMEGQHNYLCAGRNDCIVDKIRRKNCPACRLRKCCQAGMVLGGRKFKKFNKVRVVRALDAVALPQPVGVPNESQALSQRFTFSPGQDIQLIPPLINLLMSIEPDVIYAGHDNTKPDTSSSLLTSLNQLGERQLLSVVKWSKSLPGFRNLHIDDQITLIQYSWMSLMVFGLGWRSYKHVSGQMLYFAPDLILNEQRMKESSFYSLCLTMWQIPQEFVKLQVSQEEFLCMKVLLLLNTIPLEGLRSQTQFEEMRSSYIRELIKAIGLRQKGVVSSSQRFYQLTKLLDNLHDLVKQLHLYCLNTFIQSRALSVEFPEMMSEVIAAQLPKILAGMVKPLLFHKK
In words: Agonist activity at progesterone receptor in human MCF7 cells. The data set is classed as cell-based.

Data set [1] deals with T2, Progesterone receptor (Homo sapiens) (UniProt P06401).
T2 sequence (whole entry): T1 sequence (P06401 whole entry)
Put plainly: Agonist activity at progesterone receptor (unknown origin) at 100 uM.

Data set [2] addresses T3, Estrogen receptor (Homo sapiens, UniProt P03372).
T3 sequence (P03372 whole entry): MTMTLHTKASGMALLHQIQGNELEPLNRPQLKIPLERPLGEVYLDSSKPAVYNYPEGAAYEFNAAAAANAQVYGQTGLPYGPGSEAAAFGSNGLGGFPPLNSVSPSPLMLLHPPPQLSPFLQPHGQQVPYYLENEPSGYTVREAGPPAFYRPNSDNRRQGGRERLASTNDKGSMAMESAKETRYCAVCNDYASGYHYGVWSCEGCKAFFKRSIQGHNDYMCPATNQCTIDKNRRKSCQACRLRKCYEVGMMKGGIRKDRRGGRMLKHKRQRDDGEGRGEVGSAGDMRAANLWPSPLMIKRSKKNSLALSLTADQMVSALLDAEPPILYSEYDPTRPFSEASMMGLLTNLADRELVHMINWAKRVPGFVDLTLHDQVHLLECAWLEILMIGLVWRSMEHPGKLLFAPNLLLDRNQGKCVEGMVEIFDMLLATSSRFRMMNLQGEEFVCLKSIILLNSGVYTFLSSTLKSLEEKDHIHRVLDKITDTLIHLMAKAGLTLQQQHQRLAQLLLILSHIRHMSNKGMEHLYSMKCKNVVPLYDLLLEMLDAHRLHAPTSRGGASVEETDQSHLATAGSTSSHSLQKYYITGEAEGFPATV
Description: Antagonist activity at ERalpha receptor in human MCF7 cells

In data set [3] the target is T3, Estrogen receptor. The source holds these as a separate data set.
Description: Binding affinity to ERalpha receptor (unknown origin)
Data set [4] in a line: Thermodynamic solubility of the compound in 0.1 M phosphate buffer at pH 7.4 after 24 hrs. The data set is classed as physicochemical. As to conditions: read-out: Therm_solubility.
Data set [5] can be described thus: Lipophilicity, log D of the compound at pH 7.4. The data set is classed as physicochemical. As to conditions: buffer.
Data set [6] can be described thus: Intrinsic clearance in rat cryopreserved hepatocytes assessed per 10^6 cells. The data set is classed as ADME, cell-based, Hepatocyte. As to conditions: read-out: CLH.
The nature of data set [7]: Fraction unbound in Han Wistar rat 10% plasma by equilibrium dialysis. Type of data set: ADME, cell-free.
Data set [8] in a line: Fraction unbound in human 10% plasma by equilibrium dialysis. The data set is classed as ADME, cell-free.
A short description of data set [9]: Intrinsic clearance in human cryopreserved hepatocytes assessed per 10^6 cells. Type of data set: ADME, cell-based, Hepatocyte. As to conditions: read-out: CLH.
Data set [10] is described as follows: Clearance in Han Wistar rat at 2 umol/kg, iv and 5 umol/kg, po. As to conditions: in vivo. The data set is classed as ADME, organism-based.
A short description of data set [11]: Oral bioavailability in Han Wistar rat at 5 umol/kg. Type of data set: ADME, organism-based. As to conditions: in vivo.
Data set [12] can be described thus: Volume of distribution at steady state in Han Wistar rat at 2 umol/kg, iv and 5 umol/kg, po. Type of data set: ADME, organism-based. As to conditions: in vivo, read-out: Vdss.

Description for MCF7: Antiproliferative activity against human MCF7 cells

Take `CC/C(=C(\c1ccccc1)c1ccc(OCCN(C)C)cc1)c1ccccc1` [TAMOXIFEN]: in the data set on MCF7, the IC50 is 0.0575 µM.

Turning to `C[C@@H]1Cc2c([nH]c3ccccc23)[C@@H](c2ccc(Cl)cc2)N1CCC(=O)O`, the IC50 was greater than 100 µM on Progesterone receptor, 0.776 µM at Estrogen receptor [2], 1.78 µM against Estrogen receptor [3] and greater than 25.1 µM in the data set on MCF7. Further, in data set [1], the percent agonist activity came to 15%.

In the case of `C[C@@H](CO)CN1[C@H](c2ccc(/C=C/C(=O)O)cc2)c2[nH]c3ccccc3c2C[C@H]1C`, the IC50 was greater than 100 µM at Progesterone receptor, 0.0457 µM on Estrogen receptor [2] and 0.0977 µM against Estrogen receptor [3].

As to `CCC(=C(c1ccc(O)cc1)c1ccc(OCCN(C)C)cc1)c1ccccc1`, the IC50 on Progesterone receptor is greater than 100 µM; with MCF7, 0.000537 µM.

Consider `C[C@H](CO)CN1[C@H](c2ccc(/C=C/C(=O)O)cc2)c2[nH]c3ccccc3c2C[C@H]1C`, for which, in data set [4], the solubility thermodynamic at 24 h is greater than 1400 µM. In addition, the IC50 on Progesterone receptor was greater than 100 µM; against Estrogen receptor [2], 0.0468 µM; on Estrogen receptor [3], 0.0692 µM; in the data set with MCF7, 0.0224 µM. Moreover, in [5], the logD was found to be 1.6. In addition, the hepatocyte CLint in [6] was 21 µL/min/1e6 cells; in [9], 26 µL/min/1e6 cells. In addition, the fraction unbound in data set [7] worked out at 0.091; in data set [8], 0.046.

As to `CC(C)CN1[C@H](c2c(F)cc(/C=C/C(=O)O)cc2F)c2[nH]c3ccccc3c2C[C@H]1C`, the IC50 at Progesterone receptor is greater than 3.16 µM; against Estrogen receptor [2], 0.000417 µM; against Estrogen receptor [3], 0.000708 µM; with MCF7 it was 0.000229 µM.

Regarding `C[C@@H]1Cc2c([nH]c3ccccc23)[C@@H](c2ccc(Cl)cc2)N1CCO`, the IC50 on Progesterone receptor was greater than 100 µM; at Estrogen receptor [2], 0.0851 µM; against Estrogen receptor [3], 0.0398 µM; in the data set on MCF7, 13.8 µM. In data set [1], this molecule had a percent agonist activity of 15%.

For the molecule `C[C@@H]1Cc2c([nH]c3ccccc23)[C@@H](c2ccc(Cl)cc2)N1C[C@H](C)C(=O)O`, the solubility thermodynamic at 24 h in [4] is 1440 µM (≈ 551 µg/mL). Besides, the IC50 on Progesterone receptor is 0.0129 µM; against Estrogen receptor [2], 0.0302 µM; against Estrogen receptor [3], 0.0708 µM; in the data set with MCF7, greater than 31.6 µM. This molecule also came in with a clearance in data set [10] of 14 mL/min/kg. Moreover, the logD in data set [5] is 2.8. Also, the hepatocyte CLint came out at 82 µL/min/1e6 cells in data set [6] and 23 µL/min/1e6 cells in data set [9]. Further, the bioavailability in [11] came to 42%. Moreover, the fraction unbound in [7] came to 0.032; in [8] it was 0.015. The Vd in data set [12] turned out to be 0.34 L/kg.

As for `CC/C(=C(\c1ccccc1)c1ccc(/C=C/C(=O)O)cc1)c1ccccc1`, the IC50 on Progesterone receptor is greater than 100 µM; with MCF7, 0.295 µM. Moreover, the percent agonist activity entry in data set [1] was “inactive”.

For `C[C@]12CC[C@@H]3c4ccc(O)cc4C[C@@H](CCCCCCCCC[S+]([O-])CCCC(F)(F)C(F)(F)F)[C@H]3[C@@H]1CC[C@@H]2O` (stereo partly specified) [FULVESTRANT], the IC50 was greater than 100 µM on Progesterone receptor and 0.0001 µM in the data set with MCF7.

Turning to `C[C@@H]1Cc2c([nH]c3ccc(O)cc23)[C@@H](c2ccc(Cl)cc2)N1CCO`, the IC50 on Progesterone receptor is 0.0331 µM; against Estrogen receptor [2], 0.0437 µM; on Estrogen receptor [3] it was 0.0224 µM; in the data set with MCF7, greater than 31.6 µM.

`C[C@@H]1Cc2c([nH]c3ccccc23)[C@@H](c2ccc(/C=C/C(=O)O)cc2)N1CC(C)(C)F`: the figures for the IC50 on Progesterone receptor and in the data set with MCF7 were greater than 3.16 µM and 0.000324 µM, respectively.

On to `C[C@@H]1Cc2c([nH]c3ccccc23)[C@@H](c2ccc(/C=C/C(=O)O)cc2)N1CCO`, for which the IC50 at Progesterone receptor is greater than 100 µM; on Estrogen receptor [2], 1.32 µM; on Estrogen receptor [3], 0.692 µM; in the data set with MCF7, 0.813 µM.

In the case of `CC/C(=C(\c1ccc(O)cc1)c1ccc(/C=C/C(=O)O)cc1)c1ccccc1`, the IC50 on Progesterone receptor was greater than 31.6 µM. The percent agonist activity result in data set [1] was “inactive”.

As to `O=C(O)CCN1CCc2c([nH]c3ccccc23)C1c1ccc(Cl)cc1` (racemic), the solubility thermodynamic at 24 h in data set [4] was greater than 1600 µM. For the same molecule, the IC50 on Progesterone receptor was greater than 31.6 µM; at Estrogen receptor [2] it was 3.72 µM; against Estrogen receptor [3], 13.8 µM. Moreover, the clearance in data set [10] stood at 4 mL/min/kg. The same molecule came in with a logD in [5] of 1.6. For the same molecule, the hepatocyte CLint in data set [6] came out at 29 µL/min/1e6 cells; in [9] it was 19 µL/min/1e6 cells. The bioavailability in data set [11] came to 85%. The molecule also yielded a fraction unbound in [7] of 0.072. Moreover, the Vd in data set [12] was 0.6 L/kg.
